Among the test systems are DU-145; U-251; CAKI-1; IGROV-1; HCT-116; SNB-19; MDA-MB-435; A498; SF-295; SK-OV-3; SK-MEL-28; A549; K562; Hs-578T; MOLT-4; Malme-3M; KM12; OVCAR-3; OVCAR-5.
Test in all cases: inhibition of tumour cell growth, NCI panel, 48 h

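48-hour exposure; five concentrations; linearly interpolated endpoints. GI50: concentration for 50% inhibition of growth.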 Calls of active or inactive are those of the source. Cut-off read from the data, not from the text of the source: active = GI50 up to about 1.1 µM and inactive = higher.

In the case of `Cc1cn([C@@H]2O[C@H](CO)[C@@H](O)[C@@H]2O)c(=O)[nH]c1=O`, the GI50 in the experiment with DU-145, in the experiment on U-251, in the experiment on CAKI-1, in the experiment with IGROV-1, in the experiment on HCT-116 and in the experiment on SNB-19 was > 1000 µM (inactive) in each case. Besides, the GI50 with MDA-MB-435, in the experiment with A498, in the experiment with SF-295, in the experiment with SK-OV-3, in the experiment with SK-MEL-28 and with A549 was > 1000 µM (inactive) in each case. Moreover, the GI50 in the experiment on K562, in the experiment with Hs-578T, with MOLT-4, with Malme-3M, in the experiment with KM12 and in the experiment with OVCAR-3 was > 1000 µM (inactive) throughout. In addition, the GI50 in the experiment with OVCAR-5 was > 1000 µM (inactive).

As for `CC(CSc1nc2c(c(=N)n1-c1ccccc1)c(=S)n(-c1ccccc1)c(=S)n2-c1ccccc1)CN(C)C` (stereo unspecified), the GI50 in the experiment with DU-145 was 1.66 µM (inactive); in the experiment with U-251, 1.82 µM (inactive); in the experiment on CAKI-1, 1.61 µM (inactive); in the experiment on IGROV-1 it was 1.4 µM (inactive); with HCT-116 it was 1.67 µM (inactive); with SNB-19, 4.65 µM (inactive). Besides, the GI50 with MDA-MB-435 was 1.72 µM (inactive); in the experiment with A498, 2.8 µM (inactive); in the experiment on SF-295, 6.22 µM (inactive); in the experiment with SK-OV-3, 4.06 µM (inactive); with SK-MEL-28, 2.12 µM (inactive); with A549, 1.82 µM (inactive). Further, the GI50 was 1.07 µM (active) in the experiment with K562; 2.5 µM (inactive) in the experiment on Hs-578T; 0.931 µM (active) with MOLT-4; 1.71 µM (inactive) with Malme-3M; 2.25 µM (inactive) in the experiment on KM12; 1.71 µM (inactive) in the experiment with OVCAR-3. The GI50 in the experiment with OVCAR-5 was 13.6 µM (inactive).

Take `CC(C)NC(=O)OCc1c(COC(=O)NC(C)C)c(-c2ccc[n+](COC(=O)C3CCCCC3)c2)n2c1CCC2`: the GI50 in the experiment on DU-145 was 28.4 µM (inactive); in the experiment on U-251 it was 55.6 µM (inactive); in the experiment on CAKI-1, 20.7 µM (inactive); in the experiment on IGROV-1, > 100 µM (inactive); in the experiment on HCT-116, 56.4 µM (inactive); in the experiment with SNB-19, > 100 µM (inactive). Also, the GI50 with MDA-MB-435 is > 100 µM (inactive); with A498, 29.2 µM (inactive); in the experiment with SF-295 it was 47.8 µM (inactive); with SK-OV-3, 39.1 µM (inactive); in the experiment with SK-MEL-28, > 100 µM (inactive); in the experiment with A549 it was 82 µM (inactive). Besides, the GI50 with K562 is > 100 µM (inactive); with Hs-578T, > 100 µM (inactive); in the experiment with MOLT-4, 45.5 µM (inactive); in the experiment on Malme-3M it was 62.5 µM (inactive); in the experiment with KM12, > 100 µM (inactive); in the experiment with OVCAR-3, > 100 µM (inactive). Further, the GI50 with OVCAR-5 was 78.3 µM (inactive).

For the molecule `CN(CC(=O)O)c1ncc2c(n1)CCCC2`, the GI50 in the experiment with DU-145, with U-251, in the experiment on CAKI-1, in the experiment with IGROV-1, in the experiment with HCT-116 and with SNB-19 was > 100 µM (inactive) in each case. Also, the GI50 in the experiment with MDA-MB-435, in the experiment with A498, in the experiment with SF-295, with SK-OV-3, in the experiment on SK-MEL-28 and in the experiment with A549 was > 100 µM (inactive) each time. Also, the GI50 with K562, with Hs-578T, with MOLT-4, in the experiment on Malme-3M, in the experiment on KM12 and with OVCAR-3 was > 100 µM (inactive) throughout. Besides, the GI50 in the experiment on OVCAR-5 was > 100 µM (inactive).

The values above are taken from ChEMBL document CHEMBL1201862, “PubChem BioAssay data set” (2004).
